Assay results taken from patent US20100069417A1, “NOVEL PHENYL(4-PHENYLPYRIMIDIN-2-YL)AMINE DERIVATIVES, THEIR PREPARATION, AS MEDICAMENTS, PHARMACEUTICAL COMPOSITIONS AND IN PARTICULAR AS IKK INHIBITORS” (SANOFI-AVENTIS, priority 2007, published 2010).

Row | melting point | Compound
1 | 140 °C | CN(Cc1ncc[nH]1)C1CCN(S(=O)(=O)c2ccc(Nc3nccc(-c4ccc(F)cc4)n3)cc2)CC1 [Example 3, [4-(4-Fluorophenyl)pyrimidin-2-yl]-(4-{4-[(1H-imidazol-2-ylmethyl) (methyl)amino]piperidin-1-ylsulphonyl}phenyl) amine]
2 | 202.9 °C | CNC1CCN(S(=O)(=O)c2ccc(Nc3nccc(-c4ccc(F)cc4)n3)cc2)CC1 [Example 1, [4-(4-Fluorophenyl)pyrimidin-2-yl][4-(4-(methylamino)piperidin-1-ylsulphonyl)phenyl]amine]
3 | 194.4 °C | NCCN(C1CCN(Cc2ccccc2)CC1)S(=O)(=O)c1ccc(Nc2nccc(-c3ccc(F)cc3)n2)cc1 [Example 5, N-(2-Aminoethyl)-N-(1-benzylpiperidin-4-yl)-4-[4-(4-fluorophenyl)-pyrimidin-2-ylamino]benzenesulphonamide]
4 | 166.5 °C | CN(CCS(C)(=O)=O)C1CCN(S(=O)(=O)c2ccc(Nc3nccc(-c4ccc(F)cc4)n3)cc2)CC1 [Example 2, [4-(4-Fluorophenyl)pyrimidin-2-yl]-(4-{4-[(2-(methylsulphonyl)ethyl)(methyl)amino]piperidin-1-ylsulphonyl}phenyl)amine]
5 | 115.6 °C | CN(C1CCNCC1)S(=O)(=O)c1ccc(Nc2nccc(-c3ccc(F)cc3)n2)cc1 [Example 4, 4-[4-(4-Fluorophenyl)pyrimidin-2-ylamino]-N-methyl-N-(piperidin-4-yl)benzenesulphonamide]
